Reference: patent US8440708B2, “Triazole-substituted arylamides as P2X3 and P2X2/3 antagonists” (Roche Palo Alto LLC, priority 2007, dated 2013)

Key:
rat P2X3 receptor = biological target: T1, rat P2X3 receptor (Rattus norvegicus, UniProt P49654); assay: P2X3/P2X2/3 FLIPR (Fluorometric Imaging Plate Reader) Assay, P2X3; type: cell-based; conditions: CHO-K1 cells transfected with rat P2X3; agonist α,β-meATP 1 μM; Table 1; read-out: P2X3 pKi (converted)
T1 construct: expressed in transfected cells; host or cells: CHO-K1
T1 sequence (P49654 1-397): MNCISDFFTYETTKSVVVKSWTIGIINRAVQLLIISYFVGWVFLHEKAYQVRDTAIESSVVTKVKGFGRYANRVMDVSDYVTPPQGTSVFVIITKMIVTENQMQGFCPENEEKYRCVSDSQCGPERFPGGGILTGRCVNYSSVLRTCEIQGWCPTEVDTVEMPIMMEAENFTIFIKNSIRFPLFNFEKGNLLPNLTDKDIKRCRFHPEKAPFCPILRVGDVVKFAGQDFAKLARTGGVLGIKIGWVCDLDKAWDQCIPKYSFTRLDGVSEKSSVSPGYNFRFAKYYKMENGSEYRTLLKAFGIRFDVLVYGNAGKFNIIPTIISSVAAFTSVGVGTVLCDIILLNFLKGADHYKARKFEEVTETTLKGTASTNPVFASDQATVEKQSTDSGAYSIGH
Description: (§1) P2X3/P2X2/3 FLIPR (Fluorometric Imaging Plate Reader) Assay
(§2) CHO-K1 cells were transfected with cloned rat P2X3 or human P2X2/3 receptor subunits and passaged in flasks. 18-24 hours before the FLIPR experiment, cells were released from their flasks, centrifuged, and resuspended in nutrient medium at 2.5×10^5 cells/ml. The cells were aliquoted into black-walled 96-well plates at a density of 50,000 cells/well and incubated overnight in 5% CO2 at 37° C. On the day of the experiment, cells were washed in FLIPR buffer (calcium- and magnesium-free Hank's balanced salt solution, 10 mM HEPES, 2 mM CaCl2, 2.5 mM probenecid; FB). Each well received 100 μl FB and 100 μl of the fluorescent dye Fluo-3 AM [2 μM final conc.]. After a 1 hour dye loading incubation at 37° C., the cells were washed 4 times with FB, and a final 75 μl/well FB was left in each well.
(§3) Test compounds (dissolved in DMSO at 10 mM and serially diluted with FB) or vehicle were added to each well (25 μl of a 4× solution) and allowed to equilibrate for 20 minutes at room temperature. The plates were then placed in the FLIPR and a baseline fluorescence measurement (excitation at 488 nm and emission at 510-570 nm) was obtained for 10 seconds before a 100 μl/well agonist or vehicle addition. The agonist was a 2× solution of α,β-meATP producing a final concentration of 1 μM (P2X3) or 5 μM (P2X2/3). Fluorescence was measured for an additional 2 minutes at 1 second intervals after agonist addition. A final addition of ionomycin (5 μM, final concentration) was made to each well of the FLIPR test plate to establish cell viability and maximum fluorescence of dye-bound cytosolic calcium. Peak fluorescence in response to the addition of α,β-meATP (in the absence and presence of test compounds) was measured and inhibition curves generated using nonlinear regression. PPADS, a standard P2X antagonist, was used as a positive control.

human P2X2/3 receptor = biological target: T2, human P2X2/3 receptor (Homo sapiens, UniProt P56373+Q9UBL9); assay: P2X3/P2X2/3 FLIPR (Fluorometric Imaging Plate Reader) Assay, P2X2/3; type: cell-based; conditions: CHO-K1 cells transfected with human P2X2/3; agonist α,β-meATP 5 μM; Table 1; read-out: P2X2/3 pKi (converted)
T2 construct: expressed in transfected cells; host or cells: CHO-K1
T2 sequence (Q9UBL9 1-471): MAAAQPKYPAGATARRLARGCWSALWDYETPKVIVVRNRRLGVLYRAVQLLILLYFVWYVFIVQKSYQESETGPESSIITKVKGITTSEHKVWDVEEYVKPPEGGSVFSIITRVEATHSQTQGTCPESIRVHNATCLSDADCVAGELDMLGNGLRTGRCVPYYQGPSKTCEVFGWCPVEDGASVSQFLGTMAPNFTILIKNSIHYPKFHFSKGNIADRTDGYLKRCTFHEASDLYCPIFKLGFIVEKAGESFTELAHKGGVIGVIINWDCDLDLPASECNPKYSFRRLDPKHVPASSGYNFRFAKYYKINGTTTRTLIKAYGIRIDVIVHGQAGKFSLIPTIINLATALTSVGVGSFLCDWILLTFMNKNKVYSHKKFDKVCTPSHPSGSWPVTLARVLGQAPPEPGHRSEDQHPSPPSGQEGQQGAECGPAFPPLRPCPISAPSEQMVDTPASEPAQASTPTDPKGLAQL
T2 sequence (P56373 1-397): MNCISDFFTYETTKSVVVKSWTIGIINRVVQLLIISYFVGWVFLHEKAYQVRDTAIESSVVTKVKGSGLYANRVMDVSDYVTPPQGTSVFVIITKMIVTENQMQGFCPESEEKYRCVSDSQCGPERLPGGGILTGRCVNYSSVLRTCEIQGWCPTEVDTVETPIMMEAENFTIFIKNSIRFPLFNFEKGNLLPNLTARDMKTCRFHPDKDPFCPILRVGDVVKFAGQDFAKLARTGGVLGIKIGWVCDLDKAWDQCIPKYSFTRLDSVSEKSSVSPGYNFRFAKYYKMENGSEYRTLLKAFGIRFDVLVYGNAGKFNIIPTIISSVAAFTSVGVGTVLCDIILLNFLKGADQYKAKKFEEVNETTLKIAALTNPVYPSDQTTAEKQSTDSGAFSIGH
Description: as §1, §2, §3

SMILES | Ki (rat P2X3 receptor) [nM] | Ki (human P2X2/3 receptor) [nM]
COCC(C)NC(=O)c1cc(-c2ccc(C)cc2)cc(-n2ccnn2)c1 (centres unmarked) [Compound 1, 4′-Methyl-5-[1,2,3]triazol-1-yl-biphenyl-3-carboxylic acid (2-methoxy-1-methyl-ethyl)-amide] | 1820 | –
COCC(C)NC(=O)c1cc(-c2ccc(C)cc2)cc(-n2cncn2)c1 (centres unmarked) [Compound 2, 4′-Methyl-5-[1,2,4]triazol-1-yl-biphenyl-3-carboxylic acid (2-methoxy-1-methyl-ethyl)-amide] | 1450 | 10200
COCC(C)NC(=O)c1cc(-c2ccc(C)cc2)cc(-n2nccn2)c1 (centres unmarked) [Compound 3, 4′-Methyl-5-[1,2,3]triazol-2-yl-biphenyl-3-carboxylic acid (2-methoxy-1-methyl-ethyl)-amide] | 2950 | –
Cc1ccc(-c2cc(C(=O)NC(C)c3cnccn3)cc(-c3nnc4ccccn34)c2)c(F)c1 (centres unmarked) [Compound 4, 2′-Fluoro-4′-methyl-5-[1,2,4]triazolo[4,3-a]pyridin-3-yl-biphenyl-3-carboxylic acid (1-pyrazin-2-yl-ethyl)-amide] | 437 | 1230
COCC(C)NC(=O)c1cc(-c2ccc(C)cc2)cc(-n2nncc2C)c1 (centres unmarked) [Compound 5, 4′-Methyl-5-(5-methyl-[1,2,3]triazol-1-yl)-biphenyl-3-carboxylic acid (2-methoxy-1-methyl-ethyl)-amide] | 603 | 2820
COC[C@@H](C)NC(=O)c1cc(-c2ccc(C)cc2)cc(-n2nncc2C)c1 [Compound 6, 4′-Methyl-5-(5-methyl-[1,2,3]triazol-1-yl)-biphenyl-3-carboxylic acid ((R)-2-methoxy-1-methyl-ethyl)-amide] | 269 | 2040
Cc1ccc(-c2cc(C(=O)NC(C)c3cnccn3)cc(-n3nncc3C)c2)cc1 (centres unmarked) [Compound 7, 4′-Methyl-5-(5-methyl-[1,2,3]triazol-1-yl)-biphenyl-3-carboxylic acid (1-pyrazin-2-yl-ethyl)-amide] | 3.72 | 191
Cc1ccc(-c2cc(C(=O)N[C@@H](C)CO)cc(-n3nncc3C(C)C)c2)cc1 [Compound 8, 5-(5-Isopropyl-[1,2,3]triazol-1-yl)-4′-methyl-biphenyl-3-carboxylic acid ((S)-2-hydroxy-1-methyl-ethyl)-amide] | 3.72 | 309
COCC(C)NC(=O)c1cc(-c2ccc(C)cc2)cc(-n2nncc2C(C)C)c1 (centres unmarked) [Compound 9, 5-(5-Isopropyl-[1,2,3]triazol-1-yl)-4′-methyl-biphenyl-3-carboxylic acid (2-methoxy-1-methyl-ethyl)-amide] | 18.6 | 501
COC[C@@H](C)NC(=O)c1cc(-c2ccc(C)cc2)cc(-n2nncc2C(C)C)c1 [Compound 10, 5-(5-Isopropyl-[1,2,3]triazol-1-yl)-4′-methyl-biphenyl-3-carboxylic acid ((R)-2-methoxy-1-methyl-ethyl)-amide] | 7.41 | 324
Cc1ccc(-c2cc(C(=O)NC(C)CO)cc(-n3nncc3C(C)C)c2)cc1 (centres unmarked) [Compound 11, 5-(5-Isopropyl-[1,2,3]triazol-1-yl)-4′-methyl-biphenyl-3-carboxylic acid (2-hydroxy-1-methyl-ethyl)-amide] | 5.25 | 257
Cc1ccc(-c2cc(C(=O)NC(C)c3cnccn3)cc(-n3nncc3C(C)C)c2)cc1 (centres unmarked) [Compound 12, 5-(5-Isopropyl-[1,2,3]triazol-1-yl)-4′-methyl-biphenyl-3-carboxylic acid (1-pyrazin-2-yl-ethyl)-amide] | 7.94 | 31.6
Cc1ccc(-c2cc(C(=O)N[C@@H](C)CO)cc(-n3nncc3C)c2)cc1 [Compound 13, 4′-Methyl-5-(5-methyl-[1,2,3]triazol-1-yl)-biphenyl-3-carboxylic acid ((S)-2-hydroxy-1-methyl-ethyl)-amide] | 75.9 | 8130
COCC(C)NC(=O)c1cc(-c2ccc(C)cc2)cc(-n2ncnc2C(C)C)c1 (centres unmarked) [Compound 14, 5-(5-Isopropyl-[1,2,4]triazol-1-yl)-4′-methyl-biphenyl-3-carboxylic acid (2-methoxy-1-methyl-ethyl)-amide] | 12 | 1020
COC[C@@H](C)NC(=O)c1cc(-c2ccc(C)cc2)cc(-n2ncnc2C(C)C)c1 [Compound 15, 5-(5-Isopropyl-[1,2,4]triazol-1-yl)-4′-methyl-biphenyl-3-carboxylic acid ((R)-2-methoxy-1-methyl-ethyl)-amide] | 10.2 | 813
COC[C@@H](C)NC(=O)c1cc(-c2ccc(C)cc2)cc(-n2nc(C)nc2C(C)C)c1 [Compound 27, 5-(5-Isopropyl-3-methyl-[1,2,4]triazol-1-yl)-4′-methyl-biphenyl-3-carboxylic acid ((R)-2-methoxy-1-methyl-ethyl)-amide] | 100 | –
CCn1cnnc1-c1cc(C(=O)N[C@@H](C)CO)cc(-c2ccc(C)cc2)c1 [Compound 42, 5-(4-Ethyl-4H-[1,2,4]triazol-3-yl)-4′-methyl-biphenyl-3-carboxylic acid ((S)-2-hydroxy-1-methyl-ethyl)-amide] | 117 | –
Cc1ccc(-c2cc(C(=O)NC3CC3)cc(-n3ncnc3C)c2)nc1 [Compound 68, N-Cyclopropyl-3-(5-methyl-pyridin-2-yl)-5-(5-methyl-[1,2,4]triazol-1-yl)-benzamide] | 170 | –
Cc1ccc(-c2cc(C(=O)N[C@@H](C)CO)cc(-n3ncnc3CC(F)F)c2)nc1 [Compound 146, 3-[5-(2,2-Difluoro-ethyl)-[1,2,4]triazol-1-yl]-N-((S)-2-hydroxy-1-methyl-ethyl)-5-(5-methyl-pyridin-2-yl)-benzamide] | 17.8 | –
COCCc1nc(C)nn1-c1cc(C(=O)NCc2cnc(C)cn2)cc(-c2ccc(C)cn2)c1 [Compound 154, 3-[5-(2-Methoxy-ethyl)-3-methyl-[1,2,4]triazol-1-yl]-N-(5-methyl-pyrazin-2-ylmethyl)-5-(5-methyl-pyridin-2-yl)-benzamide] | 151 | –
Cc1ccc(-c2cc(C(=O)N[C@@H](C)CO)cc(-n3ncnc3C(F)(F)F)c2F)nc1 [Compound 165, 4-Fluoro-N-((S)-2-hydroxy-1-methyl-ethyl)-3-(5-methyl-pyridin-2-yl)-5-(5-trifluoromethyl-[1,2,4]triazol-1-yl)-benzamide] | 74.1 | –
Cc1ccc(-c2cc(C(=O)NC(C)c3cnccn3)cc(-n3ncnc3C(F)(F)F)c2F)nc1 (centres unmarked) [Compound 170, 4-Fluoro-3-(5-methyl-pyridin-2-yl)-N-(1-pyrazin-2-yl-ethyl)-5-(5-trifluoromethyl-[1,2,4]triazol-1-yl)-benzamide] | 3.72 | –
